# Measurements: patent publication US12576070B2, “Medicine for improving state of pregnancy, and use thereof” (priority 2014, dated 2026)
# Entries after “also recorded” stand apart in the source; their conditions may differ.
# Experiments:
# [1] = tested on: infertilitas patients with three or more consecutive miscarriages, stillbirths, or intrauterine fetal growth retardations; assay: Tacrolimus treatment of infertilitas patients from establishment of pregnancy until delivery (Example 2); format: in vivo, human
# Procedure: These patients were a group of patients for whom clear findings of abnormality related to infertility were not recognized with a serological examination that had been performed in advance.
# The patients were evaluated through a transvaginal ultrasound examination, a Fallopian tube patency test, and hysteroscopy before an index ART cycle. Among the participants, no one had submucosal myoma, endometrial polyps, intrauterine adhesion, congenital abnormalities in the uterus, or hydrosalpinx. […] Any women who had experienced miscarriage in the previous IVF cycle, who had received an IVF cycle, or who had received vaccination, all within three months, were excluded from the subjects. Any women with acquired or congenital thrombophilia were excluded from the subjects.
# The analysis was carried out according to the method described in Example 1. However, the determination of the Th1/Th2 cell ratio in a patient was carried out immediately after establishment of pregnancy (the day of confirming establishment of pregnancy). The level of the Th1/Th2 cell ratio was determined according to the average value+1 standard deviation method in the same manner as in Example 1, and a Th1/Th2 cell ratio that was equal to 10.3 or higher than that was classified as an increased Th1/Th2 cell ratio.
# All of the eleven patients were subjected to treatment with tacrolimus in the same manner as in Example 1, except for the duration of administration. […] The duration of administration of tacrolimus was from the time point immediately after establishment of pregnancy was confirmed by a pregnancy test and the Th1/Th2 cell ratio was checked, until the day of delivery, in all cases.
# The treatment was carried out in the same manner as in Example 1.
# The analysis was carried out in the same manner as in Example 1.
# [2] = tested on: repeated implantation failure (RIF) patients with elevated Th1/Th2 cell ratios; assay: Tacrolimus treatment of repeated implantation failure (RIF) patients during IVF/ET, prospective cohort study (Example 1); format: in vivo, human
# Procedure: This was a prospective cohort study of treatment for RIF patients (n=42) with elevated peripheral blood Th1 (CD4^+/IFN-γ^+)/Th2 (CD4^+/IL-4^+) cell ratios at the Sugiyama clinic between November 2011 and October 2013. Twenty-five patients were treated with tacrolimus (treatment group) and 17 received no treatment (control group).
# Treatment group continuously received tacrolimus from two days before embryo transfer until the day of the pregnancy test, for a total of 16 days. The daily dose of tacrolimus (1-3 mg) was determined based on the degree of the Th1/Th2 cell ratio.
# A total of 81 patients with a history of 5 or more RIF after IVF/ET cycles were consecutively enrolled in the study at the division of Reproductive Medicine, the Sugiyama clinic, Tokyo, Japan, between November 2011 and February 2014. This study was approved by the Institutional Review Board of the Sugiyama Clinic. A signed informed consent form was obtained from all patients prior to entering the study.
# Study patients were assessed by transvaginal ultrasound, hysterosalpingography, and hysteroscopy before the index ART cycle. None of the participants had submucosal fibroids, endometrial polyps, intrauterine adhesions, congenital anomalies of uterus or hydrosalpinges. In addition, none of the women had any history of autoimmune disease. Pregnant women or women with chronic medical or inflammatory conditions were excluded. Women who miscarried in a former IVF cycle or had IVF cycles, or received vaccination in 3 months were excluded in the study. Women with acquired or inherited thrombophilia were also excluded in this study.
# Blood was drawn between cycle day (CD) 5 and 10 prior to the index ART cycle for the evaluation of a baseline value of Th1/Th2 cell ratios. Forty-two patients had elevated Th1/Th2 cell ratio (≥10.3) and 39 had normal Th1/Th2 cell ratio (≤10.3). […] Blood was drawn between CD5 and CD10 of the menstrual cycle. A Th1/Th2 cell ratio equal to 10.3 or above was classified as an elevated Th1/Th2 cell ratio, which was determined by the mean plus one standard deviation of Th1/Th2 cell ratio levels.
# For the evaluation of a baseline value of Th1/Th2 cell ratios, total 10 ml of venous blood was obtained. Th1 and Th2 cells were determined by detecting the intracellular interferon (IFN)-γ and IL-4 production.
# The specific staining of lymphocytes was performed by incubating whole blood with anti-CD4-PC5 or anti-CD8-PC5-conjugated monoclonal antibodies (mAbs) (Beckman Coulter, Fullerton, Calif, USA). The red blood cells (RBCS) were then removed by lysis (FACS Lysing solution; Becton Dickinson, BD Biosciences, Franklin Lake. N.J., USA) and the lymphocytes were analyzed using flow cytometry (FACSCalibur; Becton Dickson). After surface staining of the activated whole blood samples with anti-CD4-PC5 conjugated mAbs, RBC lysis and specific intracellular staining using FASTIMMUNE™ IFN-γ-FITC/IL-4-PE (Becton Dickinson) were subsequently performed according to the manufacturer's instructions. Th1 cells were defined as CD4^+ lymphocytes with intracellular IFN-γ but without IL-4. Th2 cells were detected as CD4^+ lymphocytes with intracellular IL-4 but without IFN-γ. The ratio of IFN-γ to IL-4 positive Th cells was expressed as the Th1/Th2 cell ratio.
# In 42 patients with elevated Th1/Th2 cytokine ratios (equal or above 10.3), 25 of them were treated with tacrolimus (PROGRAF®, Astellas Pharma, Tokyo; treatment group), and the others (n=17) were not treated (control group) during the index IVF/ET cycles. The patients in the treatment group began tacrolimus two days prior to ET and continued until the day of pregnancy test, for a total of 16 days. […]
# [3] = tested on: kidney transplant recipients with tacrolimus exposure during pregnancy; details: cited from earlier work
# [4] = infertilitas patients n = 11, tacrolimus 1-3 mg per day from confirmation of pregnancy until delivery
# [5] = 1 mg daily, n = 12, Th1/Th2 cell ratio ≥10.3 and <13.0
# [6] = 2 mg daily, n = 8, Th1/Th2 cell ratio ≥13.0 and <15.8
# [7] = 3 mg daily, n = 5, Th1/Th2 cell ratio ≥15.8
# [8] = treatment group n = 25, tacrolimus 1-3 mg daily for 16 days
# [9] = treatment group, 15 newborns, mean ± standard deviation
# [10] = treatment group, 15 newborns, mean ± standard deviation, listed as tacrorimus
# [11] = 236 babies born from kidney transplant recipients with tacrolimus exposure during pregnancy
# [12] = kidney transplant recipients with tacrolimus exposure during pregnancy
smiles,measurement,setting,value
"C=CCC1/C=C(\C)CC(C)CC(OC)C2OC(O)(C(=O)C(=O)N3CCCCC3C(=O)OC(/C(C)=C/C3CCC(O)C(OC)C3)C(C)C(O)CC1=O)C(C)CC2OC (centres unmarked) [tacrolimus, 17-Allyl-1,14-dihydroxy-12-[2-(4-hydroxy-3-methoxycyclohexyl)-1-methylvinyl]-23,2 5-dimethoxy-13,19,21,27-tetramethyl-11,28-dioxa-4-azatricyclo[22.3.1.04,9]octacos-18-ene-2,3,10,16-tetraone]",APGAR Score 1 minute,[1]; Full term birth (8 babies),8.0 ± 1.0
same,APGAR Score 5 minute,[1]; Full term birth (8 babies),9.0 ± 0.5
same,Birth weight (gm),[1]; Full term birth (8 babies),3149 ± 234 gm
same,Complications of mother,[1]; Full term birth (8 babies),0
same,Complications of newborn baby,[1]; Full term birth (8 babies),0
same,Number of gestational days,[1]; Full term birth (8 babies),279.3 ± 6.0 days
same,Umbilical cord blood pH,[1]; Full term birth (8 babies),7.3 ± 0.12
same,APGAR Score 1 minute,[1]; Premature birth case,6
same,APGAR Score 5 minute,[1]; Premature birth case,8
same,Birth weight (gm),[1]; Premature birth case,748 gm
same,Number of gestational days,[1]; Premature birth case,208 days
same,Umbilical cord blood pH,[1]; Premature birth case,7.304
same,Complications of newborn baby,"[1]; Premature birth case, Low birth weight baby",1 (Low birth
same,Complications of mother,"[1]; Premature birth case, Pregnancy-induced hypertension",1 (Pregnancy-
same,Number of newborn babies (n): Miscarriage,[1]; [4],2 n
same,Number of newborn babies (n): Premature birth,[1]; [4],1 n
same,Clinical pregnancy with 1 mg of tacrolimus (%),[2]; [5],83.3%
same,Live birth with 1 mg of tacrolimus (%),[2]; [5],83.3%
same,Clinical pregnancy With 2 mg of tacrolimus,[2]; [6],50.0%
same,Live birth With 2 mg of tacrolimus,[2]; [6],37.5%
same,Clinical pregnancy with 3 mg of tacrolimus,[2]; [7],40.0%
same,Live birth with 3 mg of tacrolimus,[2]; [7],40.0%
same,FET success rate relative to reported success rate (39%) of women under 35,"[2]; FET cycle with tacrolimus, 75% versus 2011 CDC report 39%",1.9 times
same,Positive hCG (%),"[2]; RIF patients with elevated Th1/Th2 cell ratio, treatment group n = 25, tacrolimus 1-3 mg daily for 16 days from two days before ET",64%
same,birth weight (mean±SD),"[2]; newborns of the treatment group, as given in the text","2,995±400 g"
same,Spontaneous abortion rate (%),"[2]; pregnant patients of the treatment group, one miscarriage at 10 weeks gestation",6.3%
same,Side effect from tacrolimus,"[2]; treatment group n = 25, 1-3 mg daily for 16 days",no significant side effect; also recorded: no one reported side effect
same,Clinical pregnancy rate per ET (%),[2]; [8],64.0%
same,Live birth rate (%),[2]; [8],60%
same,Implantation rate (%),"[2]; treatment group n = 25, tacrolimus 1-3 mg daily for 16 days from two days before ET, 16/35",45.7%
same,APGAR score at 1 minutes after birth,[2]; [9],8.3±0.5
same,APGAR score at 5 minutes after birth,[2]; [9],9.2±0.5
same,Gestational days to delivery,[2]; [9],279.5 ± 10.6 days
same,Umbilical cord gas analysis (pH),[2]; [9],7.2 ± 0.05 pH
same,Birth weight (gm),"[2]; treatment group, 15 newborns, mean ± standard deviation (Table 4)","3,021 ± 371 gm"
same,APGAR score at 1 minutes after birth,[2]; [10],8.3 ± 0.5
same,APGAR score at 5 minutes after birth,[2]; [10],9.2 ± 0.6
same,Gestational days to delivery,[2]; [10],279.5 ± 10.6 days
same,Live birth rate of fresh ET (%),"[2]; treatment group, fresh ET (n = 9)",33.3%
same,Clinical pregnancy of fresh ET (%),"[2]; treatment group, fresh ET (n = 9), tacrolimus 1-3 mg daily for 16 days",44.4%
same,Live birth rate of thawed ET (%),"[2]; treatment group, frozen-thawed ET (n = 16)",75%
same,Clinical pregnancy of cryo-thaw ET (%),"[2]; treatment group, frozen-thawed ET (n = 16), tacrolimus 1-3 mg daily for 16 days",75%
same,Number of newborns,[2]; women with multiple implantation failures (5 or more) treated with tacrolimus,15
same,neonatal death rate,[3]; [11],2%
same,still born rate,[3]; [11],2%
same,obstetrical complications: diabetes during pregnancy,[3]; [12],8%
same,obstetrical complications: hypertension,[3]; [12],56%
same,obstetrical complications: infection,[3]; [12],22%
same,obstetrical complications: preeclampsia,[3]; [12],32%
same,obstetrical complications: spontaneous abortion,[3]; [12],26%
